Data on one substance can be found in patent publication US11473088B2, “Method of treating cancer and method of sensitizing cancer cells to the action of chemotherapeutic agents via growth hormone receptor antagonists or knock down” (Ohio University, priority 2016, dated 2022).

One experiment concerns MALME-3M cells. In words: RT-qPCR of RNA levels after hGH addition or GHR-KD. It counts as cell-based, human. To be noted: 0, 5, 50 and 150 ng/mL hGH, 24 hr. The protocol:
(§1) For hGH treatment, 16 hours after seeding (or 24 hours post-transfection), the cells were serum-starved for 2 hours in serum-free growth media, and hGH (phosphate buffered saline was used as control where applicable) was added at the noted concentrations (0-, 5-, 50-, and 150 ng/ml). Cells were subsequently incubated for 24 hours before evaluating RNA levels. Recombinant hGH was purchased from Antibodies Online (#ABIN2017921, Atlanta, Ga.).
(§2) Transfection was performed using siLentFect lipid reagent (Biorad #170-3360, Hercules, Calif.) following the manufacturer's protocol. […] Mock transfections were performed using universal scrambled negative control siRNA-duplex (Origene #SR30004). TYE-563-fluorescent labeled siRNA duplex (Origene #SR30002) was used as the transfection control. Cells were trypsinized, counted using a Countess Automated Cell Counter (Life Technologies, Carlsbad, Calif.), and seeded at 25,000-30,000 cells/cm^2, the cells being allowed to attach for 16-18 hours. The growth media was replaced with fresh antibiotic free complete growth medium just prior to transfection. […] Media was changed to complete growth medium plus antibiotics after 24 hours. RNA levels were analyzed 48 hours post-transfection, and protein levels were analyzed at 60 hours post-transfection.
(§3) RNA extraction was performed using the IBI-Trizol based total RNA purification kit (MidSci #IB47632, St. Louis, Mo.), and reverse transcription was performed using Maxima First Strand cDNA synthesis kit (Thermo Fisher Scientific #K1642, Waltham, Mass.) following the manufacturers' protocols. Real time-quantitative PCR and melt curve analysis were performed using Maxima SYBR-Green qPCR master mix (Thermo Fisher Scientific #K0241) and a T100 thermal cycler (Biorad #1861096, Hercules, Calif.). RNA and DNA concentrations were estimated using a Nanodrop2000 (Thermo Fisher Scientific, Waltham, Mass.) spectrophotometer. Primers were obtained from Sigma-Aldrich for the following human genes, with primer efficiency being experimentally confirmed: GAPDH, b-Actin, GHR, GHRHR, SOCS2, IGF1, IGF1R, IGF2, IGF2R, PRL, PRLR, insulin (Ins), IR, IGFBP2, IGFBP3, EGFR, HGF, cMET and ERBB3. Each sample represented a pool of two replicates per experiment. Experiments were performed at least three times. Each qPCR for individual genes and every treatment for every cell type was performed in triplicates.
(§4) And so—referring now to FIGS. 12A-12B, 17A-17C, 18A-18F, 19A-19F, and 20A-20F—RT-qPCR analysis of GH-IGF axis in human melanoma cells (FIGS. 12A-12B) and RT-qPCR analysis of GH-GHR and PRL-PRLR pairs in human melanoma cells (FIGS. 17A-17C) was performed. […] And, while not shown in FIGS. 12A and 12B, similar results for MALME-3M, MDA-MB-435 and SK-MEL-5 human melanoma cells are presented in FIGS. 13A-13L, 17A-17C, 18A-18F, 19A-19F, and 20A-20F. […] In all cases, exogenous hGH treatment was for 24 hr. RNA levels were normalized against expression of beta-actin and GAPDH as reference genes. […] Cells were grown in presence of 50 ng/mL exogenous GH and protein level changes were estimated 60 hr. post-transfection. [*, p<0.05, Students t test, n=3]. […] The percentage free area at the end time point was calculated using ImageJ software and reflected the decrease/inhibition in migration. […] [*, p<0.05, Students t-test, n=3]. In all cases, exogenous hGH treatment was for 24 hr. RNA levels were normalized against expression of β-actin and GAPDH as reference genes [*, p<0.05, Wilcoxon sign rank test, n=4]. […] In all cases, exogenous hGH treatment was for 24 hr. RNA levels were normalized against expression of β-actin and GAPDH as reference genes. [*, p<0.05, Wilcoxon sign rank test, n=4]
(Real-time PCR tracks product formation cycle by cycle.)

Another experiment relates to MDA-MB-435 cells. Put plainly: RT-qPCR of RNA levels after hGH addition or GHR-KD. The format is cell-based, human. The protocol:
as §1, §2, §3, §4

Another experiment deals with SK-MEL-28 cells. Put plainly: RT-qPCR of RNA levels after hGH addition or GHR-KD. It counts as cell-based, human. The protocol:
as §1, §2, §3, §4

The test system of another experiment is human melanoma cells. In words: RT-qPCR of RNA levels after hGH addition or GHR-KD. The format is cell-based. The protocol: as §1, §2, §3
And so—referring now to FIGS. 12A-12B, 17A-17C, 18A-18F, 19A-19F, and 20A-20F—RT-qPCR analysis of GH-IGF axis in human melanoma cells (FIGS. 12A-12B) and RT-qPCR analysis of GH-GHR and PRL-PRLR pairs in human melanoma cells (FIGS. 17A-17C) was performed. […] The percentage free area at the end time point was calculated using ImageJ software and reflected the decrease/inhibition in migration. […]

The test system of another experiment is SK-HEP-1 cells. In words: RT-qPCR after GH / GHR-antagonist treatment. It counts as cell-based, human. To be noted: 50 ng/mL GH, 3 days. The protocol:
Following treatments, cells were lysed, and RNA extraction was performed using IBI Tri-isolate kit (IBI), following manufacturer's protocol. RT-qPCR was performed as described previously.
The inventors had previously shown that knock-down of GHR in turn strongly attenuates MET as well as HGF transcript levels in human melanoma. To verify this observation in another GHR expressing human cancer like HCC, the inventors analyzed the effects of GH and GHR-antagonist treatment on the expression of the oncogenic HGF-MET loop in human liver cancer cells. HepG2 and SK-HEP-1 cells were treated for 3 days with either 50 ng/mL GH (2.5 nM), or 50 nM GHR-antagonist, or both, and their RNA expressions were compared against untreated controls at basal levels (i.e. no drug treatment). No additional effect of added GH on the expression levels of HGF or MET in the liver cancer cell lines was observed, except a 2-fold increase in MET levels in SK-HEP-1 cells (FIG. 39). […] Irrespective of presence of added GH, the antagonist lowered HGF levels by >4-fold in Hep-G2 cells and up to 2-fold in SK-HEP-1 cells; while the MET levels were decreased by >2-fold in both Hep-G2 and SK-HEP-1 cells compared to the GH treated samples (FIG. 39). […]

For experiment [1], the system named is Hep-G2 and SK-HEP-1 cells. Put plainly: Time-lapse WB of GH-regulated signaling pathways. The format is cell-based, human. Particulars: 50 ng/mL GH; within 20 minutes. The procedure: Following treatments, cells were lysed by mild sonication in Ripa lysis buffer as described previously. SDS-PAGE and western-blot was performed using general lab-techniques as described previously.

The mark [2] stands for this setting: 0, 5, 50 and 150 ng/mL hGH, 24 hr.
Setting [3] is: SK-MEL-28 and MALME-3M, maximum GH concentrations.

As to “hGH: Recombinant human growth hormone, Antibodies Online #ABIN2017921”, the “RNA levels of TYRP1 with GH” value in the experiment on MALME-3M cells is recorded as “dose-dependent increase”. In addition, the “E-cadherin RNA levels with increasing GH” value in the experiment with MDA-MB-435 cells was “decreased significantly”. In the experiment with SK-MEL-28 cells, the “IGFBP2 RNA levels at high GH levels” value is reported as “increase”, the “N-cadherin RNA levels with increase of GH” value is “significant dose-dependent increase” and the “vimentin RNA levels with increase of GH” value is given as “significant dose-dependent increase”. Besides, in the experiment with SK-MEL-28 cells (setting [2]), the “RNA levels of MITF with GH” value is “dose dependent increase” and the “RNA levels of TYRP1 with GH” value is reported as “dose-dependent increase”. The “level of decrease of some ABC-transporters in presence of GH” value in the experiment with human melanoma cells (50 ng/mL GH, with anti-cancer drugs) was about 2 fold. In addition, the “ERBB3 RNA levels” value with human melanoma cells (GH stimulation or GHR-KD) is on record as “upregulation”. For the same substance, in the experiment with human melanoma cells (setting [3]), the “HGF expression level upregulated with added GH” value is reported as “more than 2 fold” and the “MET expression level upregulated with added GH” value is recorded as “more than 2 fold”. The “increase in MET levels” value in the experiment with SK-HEP-1 cells turned out to be 2 fold. Also, the “phosphorylation states of STAT3, STAT5, SRC, and ERK1/2 (p44/42 MAPK)” value in experiment [1] is on record as “increased significantly”.
